Test results published in the supplement of paper PMC8671470.
± gives the standard deviation of the averaged measurements.

Columns and labels:
Settings in all cases: 72 h
BV-173 [1] = system: BV-173
Procedure, shortened: (§1)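 Each of fifteen myeloid leukaemia cell lines was seeded in RPMI 1640 at a density titrated to its linear growth range. The cells were incubated for 72 h at 37 °C and 5% CO2 with compounds at five tenfold doses from 1 to 10,000 nM, in duplicate. After ATP luminescence was normalised to vehicle and to a positive control at 10 µM, four-parameter log-logistic curves were fitted. These curves gave the IC50.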

HEL [2] = system: HEL
Procedure, shortened: as §1

HL-60 [3] = system: HL-60
Procedure, shortened: as §1

K-562 [4] = system: K-562
Procedure, shortened: as §1

KCL-22 [5] = system: KCL-22
Procedure, shortened: as §1

KG-1 = system: KG-1
Procedure, shortened: as §1

KU-812 [6] = system: KU-812
Procedure, shortened: as §1

LAMA-84 [7] = system: LAMA-84
Procedure, shortened: as §1

ML-2 [8] = system: ML-2
Procedure, shortened: as §1

MOLM-13 = system: MOLM-13
Procedure, shortened: as §1

MV4-11 = system: MV4-11
Procedure, shortened: as §1

Mono-Mac-6 [9] = system: Mono-Mac-6
Procedure, shortened: as §1

NOMO-1 [10] = system: NOMO-1
Procedure, shortened: as §1

SHI-1 [11] = system: SHI-1
Procedure, shortened: as §1

THP-1 = system: THP-1
Procedure, shortened: as §1

HL-60 [12] = assay: cell viability (% survival relative to DMSO control); higher = less cytotoxic
Procedure, shortened: (§2)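 A rescreen of the full library used HL-60 cells in RPMI 1640 with 10% FBS on 384-well plates, run in duplicate at five tenfold concentrations (1–10,000 nM). Each screen included DMSO or 100 nM of one of three metabolic inhibitors and ran 72 h at 37 °C, 5% CO2. CellTiter-Glo viability was scaled between DMSO and 10 μM proteasome-inhibitor wells. Any area under the curve comes from four-parameter log-logistic fits with drc and PharmacoGx.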

BV-173 [13] = assay: cell viability (% survival relative to DMSO control, bortezomib = 0%); higher = less cytotoxic
Procedure, shortened: (§3)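 Fifteen myeloid leukaemia cell lines were exposed to compounds at 1, 10, 100, 1000 or 10000 nM in 384-well plates for 72 h at 37 °C and 5% CO2. Viability was read by CellTiter-Glo luminescence and normalised, with vehicle as 100% and a 10 µM positive control as 0%. Values are percent survival averaged over duplicates.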

HEL [14] = assay: as above
Procedure, shortened: as §3

HL-60 [15] = assay: as above
Procedure, shortened: as §3

K-562 [16] = assay: as above
Procedure, shortened: as §3

KCL-22 [17] = assay: as above
Procedure, shortened: as §3

KU-812 [18] = assay: as above
Procedure, shortened: as §3

LAMA-84 [19] = assay: as above
Procedure, shortened: as §3

ML-2 [20] = assay: as above
Procedure, shortened: as §3

Mono-Mac-6 [21] = assay: as above
Procedure, shortened: as §3

NOMO-1 [22] = assay: as above
Procedure, shortened: as §3

SHI-1 [23] = assay: as above
Procedure, shortened: as §3

HL-60 [24] = assay: area under dose-response curve (viability, 1 nM-10 uM) (fraction (0-1)); higher = more sensitive
Procedure, shortened: as §2

COC(=O)[C@]12CCC(C)(C)C[C@H]1[C@H]1C(=O)C=C3[C@@]4(C)C=C(C#N)C(=O)C(C)(C)[C@@H]4CC[C@@]3(C)[C@]1(C)CC2 [Bardoxolone methyl]
Settings | IC50 (cell viability) [µM]
BV-173 [1] | 1.22
HEL [2] | 2.24
HL-60 [3] | > 10
K-562 [4] | > 10
KCL-22 [5] | 1.14
KG-1 | 1.09
KU-812 [6] | 9.5
LAMA-84 [7] | > 10
ML-2 [8] | 1.64
MOLM-13 | > 10
MV4-11 | > 10
Mono-Mac-6 [9] | 0.79
NOMO-1 [10] | > 10
SHI-1 [11] | > 10
THP-1 | 7.05

cell viability [%], HL-60 [12]
Settings | 0.001 µM | 0.01 µM | 0.1 µM | 1 µM | 10 µM
co-treatment: AZD3965 100 nM | 101 ± 1.8 | 98 ± 5 | 110 ± 4 | 90.8 ± 16 | 32.6 ± 44
co-treatment: DMSO vehicle | 102.3 ± 0.12 | 97.6 ± 2.4 | 101 ± 4.3 | 97.8 ± 1.5 | 107 ± 1.7
co-treatment: GSK2194069 100 nM | 100 ± 3.3 | 92.7 ± 7.7 | 104 ± 3.8 | 88.8 ± 13 | 54.3 ± 56
co-treatment: pictilisib 100 nM | 98.9 ± 1.8 | 78.7 ± 5.8 | 73.5 ± 3.1 | 78.4 ± 4.4 | 0.653 ± 0.12

Settings | area under dose-response curve, co-treatment: AZD3965 100 nM | area under dose-response curve, co-treatment: DMSO vehicle | area under dose-response curve, co-treatment: GSK2194069 100 nM | area under dose-response curve, co-treatment: pictilisib 100 nM | cell viability, 1 nM [%] | cell viability, 10 nM [%] | cell viability, 100 nM [%] | cell viability, 1000 nM [%] | cell viability, 10000 nM [%]
BV-173 [13] | – | – | – | – | 89.7 | 102 | 116 | 61 | 5.94
HEL [14] | – | – | – | – | 106 | 92.6 | 117 | 84.7 | -0.0991
HL-60 [15] | – | – | – | – | 114 | 91.8 | 112 | 93.6 | 94.2
HL-60 [24] | 0.0976 | < 0.0301 | 0.0723 | 0.144 | – | – | – | – | –
K-562 [16] | – | – | – | – | 106 | 97.5 | 114 | 98.8 | 86.9
KCL-22 [17] | – | – | – | – | 100 | 107 | 112 | 56.2 | 0.0358
KU-812 [18] | – | – | – | – | 84.9 | 104 | 113 | 91.3 | 59.2
LAMA-84 [19] | – | – | – | – | 98.9 | 96.1 | 107 | 106 | 86
ML-2 [20] | – | – | – | – | 91.7 | 103 | 113 | 73.1 | -0.425
Mono-Mac-6 [21] | – | – | – | – | 82.9 | 103 | 123 | 44.6 | 13.7
NOMO-1 [22] | – | – | – | – | 99.4 | 99.3 | 115 | 101 | 80.8
SHI-1 [23] | – | – | – | – | 107 | 103 | 118 | 106 | 94.3

O=c1oc2c(O)c(O)cc3c(=O)oc4c(O)c(O)cc1c4c23 [Benzoaric Acid]
Settings | IC50 (cell viability) [µM]
BV-173 [1] | > 10
HEL [2] | > 10
HL-60 [3] | > 10
K-562 [4] | > 10
KCL-22 [5] | > 10
KG-1 | > 10
KU-812 [6] | > 10
LAMA-84 [7] | > 10
ML-2 [8] | > 10
MOLM-13 | > 10
MV4-11 | > 10
Mono-Mac-6 [9] | > 10
NOMO-1 [10] | > 10
SHI-1 [11] | > 10
THP-1 | > 10

cell viability [%], HL-60 [12]
Settings | 0.001 µM | 0.01 µM | 0.1 µM | 1 µM | 10 µM
co-treatment: AZD3965 100 nM | 98.61 ± 0.51 | 96.4 ± 5.9 | 101 ± 5.7 | 99.21 ± 0.23 | 99.13 ± 0.98
co-treatment: DMSO vehicle | 102.3 ± 0.26 | 100.2 ± 0.36 | 99.9 ± 1.1 | 102 ± 4.1 | 100 ± 7.2
co-treatment: GSK2194069 100 nM | 101 ± 0.64 | 97.6 ± 3.1 | 95.1 ± 1.7 | 94.3 ± 0.58 | 100 ± 3.9
co-treatment: pictilisib 100 nM | 106 ± 9.2 | 104 ± 17 | 101.4 ± 0.41 | 99.2 ± 1.9 | 96.3 ± 2.1

Settings | area under dose-response curve, co-treatment: AZD3965 100 nM | area under dose-response curve, co-treatment: DMSO vehicle | area under dose-response curve, co-treatment: GSK2194069 100 nM | area under dose-response curve, co-treatment: pictilisib 100 nM | cell viability, 1 nM [%] | cell viability, 10 nM [%] | cell viability, 100 nM [%] | cell viability, 1000 nM [%] | cell viability, 10000 nM [%]
BV-173 [13] | – | – | – | – | 92.9 | 101 | 92.8 | 97.9 | 99.1
HEL [14] | – | – | – | – | 113 | 100 | 107 | 92.3 | 114
HL-60 [15] | – | – | – | – | 94.6 | 106 | 90.7 | 92 | 102
HL-60 [24] | < 0.0301 | < 0.0301 | 0.0302 | 0.0302 | – | – | – | – | –
K-562 [16] | – | – | – | – | 111 | 93.6 | 94.9 | 87.7 | 90.1
KCL-22 [17] | – | – | – | – | 100 | 111 | 99 | 97.8 | 124
KU-812 [18] | – | – | – | – | 98.4 | 97 | 95.1 | 92.4 | 110
LAMA-84 [19] | – | – | – | – | 101 | 95.9 | 98.9 | 94.6 | 105
ML-2 [20] | – | – | – | – | 94.7 | 101 | 95.9 | 95.1 | 108
Mono-Mac-6 [21] | – | – | – | – | 108 | 109 | 103 | 92.5 | 118
NOMO-1 [22] | – | – | – | – | 102 | 104 | 104 | 99.9 | 102
SHI-1 [23] | – | – | – | – | 97.7 | 106 | 99.7 | 94.3 | 120
